Reference: patent US10550116B2, “Fused bicyclic heterocycle derivatives as pesticides” (BAYER CROPSCIENCE AKTIENGESELLSCHAFT, priority 2015, dated 2020)
Like-named read-outs stand apart in the source and are kept apart here.

Tests used:
Spodoptera frugiperda = Spodoptera frugiperda spray test; format: in vivo; settings: foliar, 168 h, caterpillars on maize leaf discs, after 7 days, read-out: efficacy
Method: (§1) To produce a suitable active ingredient preparation, 1 part by weight of active ingredient is dissolved with the stated parts by weight of solvent and made up with water containing an emulsifier concentration of 1000 ppm until the desired concentration is attained. To produce further test concentrations, the preparation is diluted with emulsifier-containing water. Leaf discs of maize (Zea mays) are sprayed with an active ingredient preparation of the desired concentration and, after drying, populated with caterpillars of the armyworm (Spodoptera frugiperda). After 7 days, the efficacy in % is determined. 100% means that all the caterpillars have been killed; 0% means that no caterpillar has been killed.

[1] = log P by HPLC on reversed-phase column (EEC Directive 79/831 Annex V.A8); format: physicochemical; settings: reversed-phase C18 HPLC column, 55° C.
Method: The log P values are measured according to EEC Directive 79/831 Annex V.A8 by HPLC (high-performance liquid chromatography) on a reversed-phase column (C 18). Temperature: 55° C. The LC-MS determination in the acidic range is effected at pH 2.7 using 0.1% aqueous formic acid and acetonitrile (contains 0.1% formic acid) as eluents; linear gradient from 10% acetonitrile to 95% acetonitrile. Called log P (HCOOH) in the table. LC-MS determination in the neutral range is effected at pH 7.8 with 0.001 molar aqueous ammonium hydrogencarbonate solution and acetonitrile as eluents; linear gradient from 10% acetonitrile to 95% acetonitrile. Called log P (neutral) in the table. Calibration is carried out using unbranched alkan-2-ones (having 3 to 16 carbon atoms) with known log P values (log P values determined on the basis of the retention times by linear interpolation between two successive alkanones).

Phaedon cochleariae = Phaedon cochleariae spray test; format: in vivo; settings: foliar, 168 h, larvae on Chinese cabbage leaf discs, after 7 days, read-out: efficacy
Method: as §1, with “water. Discs” for “water. Leaf discs”, “of Chinese cabbage leaves (Brassica pekinensis)” for “of maize (Zea mays)”, “with larvae” for “with caterpillars”, “the mustard beetle (Phaedon cochleariae).” for “the armyworm (Spodoptera frugiperda).”, “the beetle larvae” for “the caterpillars”, “no beetle larvae have” for “no caterpillar has”

Myzus persicae = Myzus persicae spray test; format: in vivo; settings: foliar, Chinese cabbage leaf discs, after 5-6 days, read-out: efficacy
Method: as §1, with “Discs” for “Leaf discs”, “Chinese cabbage leaves (Brassica pekinensis) infested by all stages of the green peach aphid (Myzus persicae)” for “maize (Zea mays)”, “concentration.” for “concentration and, after drying, populated with caterpillars of the armyworm (Spodoptera frugiperda).”, “5-6” for “7”, “aphids” for “caterpillars”, “aphids have” for “caterpillar has”

[2] = pH 7.8, aqueous ammonium hydrogencarbonate/acetonitrile, read-out: log P (neutral)
[3] = pH 2.7, 0.1% aqueous formic acid/acetonitrile, read-out: log P (acidic)

chromatographic logP [1, 2] | SMILES | pest or weed control at 500 g/ha (Spodoptera frugiperda) [%] | further results
2.58 | CCS(=O)(=O)c1ccc2nc(-c3nc4cc(C(F)(F)F)ncc4n3C)c(S(=O)(=O)CC)cc2c1 [Example I-6, 3,6-Bis(ethylsulphonyl)-2-[3-methyl-6-(trifluoromethyl)imidazo[4,5-c]pyridin-2-yl]quinoline] | 100 | pest or weed control at 500 g/ha (Phaedon cochleariae): 83%; pest or weed control at 500 g/ha (Myzus persicae): 90%
– | O=C(O)c1ccc2cccnc2n1 [XXX-1, 1,8-Naphthyridine-2-carboxylic acid] | – | chromatographic logP [1, 3]: -0.12
– | CCSc1cc2ccccc2nc1-c1nc2cc(C(F)(F)F)cnc2n1C [Example I-25] | 100 | pest or weed control at 500 g/ha (Phaedon cochleariae): 100%
3.53 | Cn1c(-c2nc3ccc(Cl)cc3cc2Cl)nc2cc(C(F)(F)F)ncc21 [Example V-4, 3,6-Dichloro-2-[3-methyl-6-(trifluoromethyl)imidazo[4,5-c]pyridin-2-yl]quinoline] | – | –
0.92 | COC(=O)c1ccc2ncccc2n1 [XXII-2, Methyl 1,5-naphthyridine-2-carboxylate] | – | –
1.93 | COC(=O)c1nc2ncc(Cl)cc2cc1Cl [XXXI-1, Methyl 3,6-dichloro-1,8-naphthyridine-2-carboxylate] | – | –
– | CCS(=O)(=O)c1cc2ccccc2nc1-c1nc2cc(C(F)(F)C(F)(F)F)ncc2n1C [Example I-10] | 100 | pest or weed control at 500 g/ha (Phaedon cochleariae): 100%; pest or weed control at 500 g/ha (Myzus persicae): 90%
– | CCS(=O)(=O)c1cc2ccccc2nc1-c1nc2cc(C(F)(F)F)cnc2n1C [Example I-5] | 100 | pest or weed control at 500 g/ha (Phaedon cochleariae): 100%; pest or weed control at 500 g/ha (Myzus persicae): 70%
– | CCSc1cc2ccccc2nc1C(=O)CBr [2-Bromo-1-[3-(ethylsulphanyl)quinolin-2-yl]ethanone] | – | chromatographic logP [1, 3]: 3.95
4.26 | CCSc1cc2ccccc2nc1-c1nc2cc3c(cc2[nH]1)OC(F)(F)O3 [Example I-31, 6-(3-Ethylsulphanyl-2-quinolyl)-2,2-difluoro-5H-[1,3]dioxolo[4,5-f]benzimidazole] | – | –
– | CCS(=O)(=O)c1cc2ccccc2nc1-c1nc2cc(C(F)(F)C(F)(F)F)cnc2n1C [Example I-20] | – | pest or weed control at 100 g/ha (Spodoptera frugiperda; 100 g/ha): 100%; pest or weed control at 100 g/ha (Phaedon cochleariae; 100 g/ha): 100%; pest or weed control at 100 g/ha (Myzus persicae): 100%
2.98 | CC[S+]([O-])c1cc2ccccc2nc1-c1nc2cc(C(F)(F)F)cnc2o1 (stereo not drawn) [Example I-28] | – | –
4.36 | CCSc1cc2ccccc2nc1-c1nc2cc(C(F)(F)F)cnc2o1 [Example I-27] | – | –
2.46 | COC(=O)c1nc2ccc(Cl)nc2cc1Cl [XXXI-2, Methyl 3,6-dichloro-1,5-naphthyridine-2-carboxylate] | – | –
– | CCS(=O)(=O)c1cc2cc(Cl)ccc2nc1-c1nc2cc(C(F)(F)F)ncc2n1C [Example I-7] | 100 | pest or weed control at 500 g/ha (Phaedon cochleariae): 100%; pest or weed control at 500 g/ha (Myzus persicae): 90%
2.44 | Cn1c(-c2nc3ncc(Cl)cc3cc2Cl)nc2cc(C(F)(F)F)ncc21 [Example V-3, 3,6-Dichloro-2-[3-methyl-6-(trifluoromethyl)-3H-imidazo[4,5-c]pyridin-2-yl]-1,8-naphthyridine] | – | –
– | CCS(=O)(=O)c1cc2ccccc2nc1-c1nc2cc(C(F)(F)F)ccc2o1 [Example I-17] | 100 | pest or weed control at 500 g/ha (Phaedon cochleariae): 100%; pest or weed control at 500 g/ha (Myzus persicae): 90%
3.24 | CCSc1cc2ccccc2nc1-c1cn2cnc(C(F)(F)F)cc2n1 [Example I-46, 3-(Ethylsulphanyl)-2-[7-(trifluoromethyl)imidazo[1,2-c]pyrimidin-2-yl]quinoline] | – | –
2.21 | CCS(=O)(=O)c1cnc2nc(-c3nc4cc(C(F)(F)F)ncc4n3C)c(S(=O)(=O)CC)cc2c1 [Example I-41, 3,6-Bis(ethylsulphonyl)-2-[3-methyl-6-(trifluoromethyl)-3H-imidazo[4,5-c]pyridin-2-yl]-1,8-naphthyridine] | – | pest or weed control at 500 g/ha (Myzus persicae): 90%

chromatographic logP [1, 2] | SMILES | pest or weed control at 500 g/ha (Spodoptera frugiperda) [%] | further results
– | CC[S+]([O-])c1cc2ccccc2nc1-c1nc2cc(SC(F)(F)F)ccc2o1 (stereo not drawn) [Example I-30] | 100 | pest or weed control at 500 g/ha (Phaedon cochleariae): 83%; pest or weed control at 500 g/ha (Myzus persicae): 70%
3.3 | CCSc1cc2ccccc2nc1-c1nc2cc(C(F)(F)F)ncc2n1C [Example I-2, 3-Ethylsulphanyl-2-[3-methyl-6-(trifluoromethyl)imidazo[4,5-c]pyridin-2-yl]quinoline] | 100 | pest or weed control at 100 g/ha (Myzus persicae): 100%
2.45 | CCS(=O)(=O)c1nc2ccccc2nc1-c1nc2cc(C(F)(F)F)ncc2n1C [Example I-3, 2-Ethylsulphonyl-3-[3-methyl-6-(trifluoromethyl)imidazo[4,5-c]pyridin-2-yl]quinoxaline] | – | –
3.42 | CCS(=O)(=O)c1cc2ccccc2nc1-c1nc2cc(S(=O)(=O)C(F)(F)F)ccc2n1C [Example I-24, 3-Ethylsulphonyl-2-[1-methyl-5-(trifluoromethylsulphonyl)benzimidazol-2-yl]quinoline] | – | –
0.77 | COC(=O)c1ccc2cccnc2n1 [XXII-1, Methyl 1,8-naphthyridine-2-carboxylate] | – | –
– | O=C(O)c1nc2ncc(Cl)cc2cc1Cl [III-1, 3,6-Dichloro-1,8-naphthyridine-2-carboxylic acid] | – | chromatographic logP [1, 3]: 0.7
2.89 | Cn1c(-c2nc3ccccc3cc2Cl)nc2cc(C(F)(F)F)ncc21 [Example V-1, 3-Chloro-2-[3-methyl-6-(trifluoromethyl)imidazo[4,5-c]pyridin-2-yl]quinoline] | – | –
2.84 | Cn1c(-c2nc3ccccc3nc2Cl)nc2cc(C(F)(F)F)ncc21 [Example V-2, 2-Chloro-3-[3-methyl-6-(trifluoromethyl)imidazo[4,5-c]pyridin-2-yl]quinoxaline] | – | –
0.48 | CCSc1cc2ccccc2nc1C(=O)O [3-(Ethylsulphanyl)quinoline-2-carboxylic acid] | – | –
– | CCSc1cc2ccccc2nc1-c1nc2cc(C(F)(F)C(F)(F)F)ncc2n1C [Example I-35] | 100 | pest or weed control at 500 g/ha (Phaedon cochleariae): 83%
3.37 | CCS(=O)(=O)c1cc2ccccc2nc1-c1nc2cc3c(cc2[nH]1)OC(F)(F)O3 [Example I-15, 6-(3-Ethylsulphonyl-2-quinolyl)-2,2-difluoro-5H-[1,3]dioxolo[4,5-f]benzimidazole] | 100 | pest or weed control at 500 g/ha (Phaedon cochleariae): 100%
3.99 | CCSc1cc2cc(Cl)ccc2nc1-c1nc2cc(C(F)(F)F)ncc2n1C [6-Chloro-3-ethylsulphanyl-2-[3-methyl-6-(trifluoromethyl)imidazo[4,5-c]pyridin-2-yl]quinoline] | – | –
– | CCS(=O)(=O)c1c(-c2nc3cc(C(F)(F)F)ncc3n2C)ncc2ccccc12 [I′-44] | 100 | pest or weed control at 500 g/ha (Phaedon cochleariae): 83%; pest or weed control at 500 g/ha (Myzus persicae): 90%
3.31 | CCSc1cc2ccccc2nc1C(C)=O [1-[3-(Ethylsulphanyl)quinolin-2-yl]ethanone] | – | –
– | CCS(=O)(=O)c1cc2ccccc2nc1-c1nc2cc(C(F)(F)F)ccc2n1C [Example I-12] | 100 | pest or weed control at 500 g/ha (Phaedon cochleariae): 100%; pest or weed control at 500 g/ha (Myzus persicae): 90%
5.71 | CCSc1cc2ccccc2nc1C(=O)Nc1cc(C(F)(F)F)cnc1Cl [IV-1] | – | –
2.17 | CCSc1cc2ccccc2nc1C(=O)N(C)OC [3-(Ethylsulphanyl)-N-methoxy-N-methylquinoline-2-carboxamide] | – | –
4.35 | CCSc1ccc2nc(-c3nc4cc(C(F)(F)F)ncc4n3C)c(SCC)cc2c1 [3,6-bis(ethylsulphanyl)-2-[3-methyl-6-(trifluoromethyl)imidazo[4,5-c]pyridin-2-yl]quinoline] | – | –
